Experimental data taken from patent US20230329236A1, “HERBICIDAL PYRIMIDINE DERIVATIVES” (MoA Technology Limited, priority 2020, published 2023).

Experiments:
[1] = tested on: Digitaria sanguinalis (DIGSA); assay: Post-emergence glasshouse test, visual injury, DIGSA; type: in vivo; details: Table 4, post-emergence, 14±1 days post application
Procedure: (§1) Seeds of a variety of test species are grown in a sandy loam soil mixture, Lolium multiflorum (LOLMU), Amaranthus retroflexus (AMARE), Echinochloa crus-gaffi (ECHCG), Veronica persica (VERPE), Glycine max (GLXMA), Oryza sativa (ORYSA), Zea mays (ZEAMX), spring wheat (TRZAS), Ipomoea hederacea (IPOHE), Ipomoea purpurea (PHBPU), Stellaria media (STEME), Solanum nigrum (SOLNI), Digitaria sanguinalis (DIGSA), Setaria italica (SETIT), Alopecurus myosuroides (ALOMY) and Avena fatua (AVEFA).
(§2) After sowing, at growth stage BBCH 12-14 (post-emergence), the plants are sprayed with an aqueous spray solution derived from the formulation of the technical active ingredient in acetone/water (50:50) solution containing 0.5% Tween 20 (polyoxyethlyene sorbitan monolaureate, CAS RN 9005-64-5). The test compounds are applied at the required concentration of active ingredient in g/ha. The test plants are then grown in a glasshouse under controlled environmental conditions and watered regularly as required. After 14±1 days post application (for post-emergence test), the test is evaluated by assessing the percentage damage caused to the plants in comparison with the untreated plots. The biological activities for post-emergence testing are shown below (Table 3 and Table 4) as a % visual injury.

Zea mays (ZEAMX) = assay: Post-emergence glasshouse test, visual injury, ZEAMX; type: in vivo; details: Table 4, post-emergence, 14±1 days post application
Procedure: as §1, §2

Stellaria media (STEME) = assay: Post-emergence glasshouse test, visual injury, STEME; type: in vivo; details: Table 4, post-emergence, 14±1 days post application
Procedure: as §1, §2

Ipomoea purpurea (PHBPU) = assay: Post-emergence glasshouse test, visual injury, PHBPU; type: in vivo; details: Table 4, post-emergence, 14±1 days post application
Procedure: as §1, §2

Setaria italica (SETIT) = assay: Post-emergence glasshouse test, visual injury, SETIT; type: in vivo; details: Table 4, post-emergence, 14±1 days post application
Procedure: as §1, §2

Solanum nigrum (SOLNI) = assay: Post-emergence glasshouse test, visual injury, SOLNI; type: in vivo; details: Table 4, post-emergence, 14±1 days post application
Procedure: as §1, §2

[2] = tested on: Echinochloa crus-gaffi (ECHCG); assay: Post-emergence glasshouse test, visual injury, ECHCG; type: in vivo, Echinochloa crus-galli; details: 336 h, 14±1 days post application
How it was run: (§3)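 Plants were grown in sandy loam and sprayed post-emergence at BBCH 12-14. The spray was derived from acetone/water (50:50) containing 0.5% Tween 20, dosed as g/ha active ingredient. Percent visual damage versus untreated plants was scored after 14±1 days under controlled glasshouse conditions.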

[3] = tested on: Alopecurus myosuroides (ALOMY); assay: Post-emergence glasshouse test, visual injury, ALOMY; type: in vivo; details: Table 4, post-emergence, 14±1 days post application
Procedure: as §1, §2

spring wheat (TRZAS) = assay: Post-emergence glasshouse test, visual injury, TRZAS; type: in vivo; details: Table 4, post-emergence, 14±1 days post application
Procedure: as §1, §2

[4] = tested on: Lolium multiflorum (LOLMU); assay: Post-emergence glasshouse test, visual injury, LOLMU; type: in vivo; details: 336 h, 14±1 days post application
How it was run: as §3

Glycine max (GLXMA) = assay: Post-emergence glasshouse test, visual injury, GLXMA; type: in vivo; details: Table 4, post-emergence, 14±1 days post application
Procedure: as §1, §2

Oryza sativa (ORYSA) = assay: Post-emergence glasshouse test, visual injury, ORYSA; type: in vivo; details: Table 4, post-emergence, 14±1 days post application
Procedure: as §1, §2

[5] = tested on: Amaranthus retroflexus (AMARE); assay: Post-emergence glasshouse test, visual injury, AMARE; type: in vivo; details: 336 h, 14±1 days post application
How it was run: as §3

Avena fatua (AVEFA) = assay: Post-emergence glasshouse test, visual injury, AVEFA; type: in vivo; details: Table 4, post-emergence, 14±1 days post application
Procedure: as §1, §2

[6] = tested on: Ipomoea hederacea (IPOHE); assay: Post-emergence glasshouse test, visual injury, IPOHE; type: in vivo; details: Table 4, post-emergence, 14±1 days post application
Procedure: as §1, §2

Veronica persica (VERPE) = assay: Post-emergence glasshouse test, visual injury, VERPE; type: in vivo; details: 336 h, 14±1 days post application
How it was run: as §3

[7] = Table 4, post-emergence, 125 g/ha
[8] = Table 4, post-emergence, 250 g/ha
[9] = Table 4, post-emergence, 1000 g/ha

Cc1cc(-c2cnc(NC3CCCC3)nc2C(C)C)on1 [Compound 45]
DIGSA % visual injury ([1]; 125 g/ha): 80% | DIGSA % visual injury ([1]; 250 g/ha): 70% | DIGSA % visual injury ([1]; 500 g/ha): 95% | DIGSA % visual injury ([1]; 1000 g/ha): 98% | ZEAMX % visual injury (Zea mays (ZEAMX); 125 g/ha): 0% | ZEAMX % visual injury (Zea mays (ZEAMX); 250 g/ha): 0% | ZEAMX % visual injury (Zea mays (ZEAMX); 500 g/ha): 70% | ZEAMX % visual injury (Zea mays (ZEAMX); 1000 g/ha): 40% | STEME % visual injury (Stellaria media (STEME); 125 g/ha): 100% | STEME % visual injury (Stellaria media (STEME); 250 g/ha): 100% | STEME % visual injury (Stellaria media (STEME); 500 g/ha): 100% | STEME % visual injury (Stellaria media (STEME); 1000 g/ha): 100% | PHBPU % visual injury (Ipomoea purpurea (PHBPU); 125 g/ha): 50% | PHBPU % visual injury (Ipomoea purpurea (PHBPU); 250 g/ha): 70% | PHBPU % visual injury (Ipomoea purpurea (PHBPU); 500 g/ha): 70% | PHBPU % visual injury (Ipomoea purpurea (PHBPU); 1000 g/ha): 70% | SETIT % visual injury (Setaria italica (SETIT); 125 g/ha): 50% | SETIT % visual injury (Setaria italica (SETIT); 250 g/ha): 80% | SETIT % visual injury (Setaria italica (SETIT); 500 g/ha): 95% | SETIT % visual injury (Setaria italica (SETIT); 1000 g/ha): 95% | SOLNI % visual injury (Solanum nigrum (SOLNI); 125 g/ha): 98% | SOLNI % visual injury (Solanum nigrum (SOLNI); 250 g/ha): 100% | SOLNI % visual injury (Solanum nigrum (SOLNI); 500 g/ha): 100% | SOLNI % visual injury (Solanum nigrum (SOLNI); 1000 g/ha): 100% | pest or weed control at 500 g/ha ([2]; Table 3, post-emergence): 100% | pest or weed control at 125 g/ha [2, 7]: 70% | pest or weed control at 250 g/ha [2, 8]: 80% | pest or weed control at 500 g/ha ([2]; Table 4, post-emergence): 80% | pest or weed control at 1000 g/ha [2, 9]: 90% | ALOMY % visual injury ([3]; 125 g/ha): 50% | ALOMY % visual injury ([3]; 250 g/ha): 70% | ALOMY % visual injury ([3]; 500 g/ha): 50% | ALOMY % visual injury ([3]; 1000 g/ha): 80% | TRZAS % visual injury (spring wheat (TRZAS); 125 g/ha): 0% | TRZAS % visual injury (spring wheat (TRZAS); 250 g/ha): 30% | TRZAS % visual injury (spring wheat (TRZAS); 500 g/ha): 30% | TRZAS % visual injury (spring wheat (TRZAS); 1000 g/ha): 40% | pest or weed control at 500 g/ha ([4]; Table 3, post-emergence): 70% | pest or weed control at 125 g/ha [4, 7]: 40% | pest or weed control at 250 g/ha [4, 8]: 60% | pest or weed control at 500 g/ha ([4]; Table 4, post-emergence): 90% | pest or weed control at 1000 g/ha [4, 9]: 100% | GLXMA % visual injury (Glycine max (GLXMA); 125 g/ha): 20% | GLXMA % visual injury (Glycine max (GLXMA); 250 g/ha): 50% | GLXMA % visual injury (Glycine max (GLXMA); 500 g/ha): 40% | GLXMA % visual injury (Glycine max (GLXMA); 1000 g/ha): 50% | ORYSA % visual injury (Oryza sativa (ORYSA); 125 g/ha): 50% | ORYSA % visual injury (Oryza sativa (ORYSA); 250 g/ha): 99% | ORYSA % visual injury (Oryza sativa (ORYSA); 500 g/ha): 90% | ORYSA % visual injury (Oryza sativa (ORYSA); 1000 g/ha): 80% | pest or weed control at 500 g/ha ([5]; Table 3, post-emergence): 100% | pest or weed control at 125 g/ha [5, 7]: 95% | pest or weed control at 250 g/ha [5, 8]: 90% | pest or weed control at 500 g/ha ([5]; Table 4, post-emergence): 100% | pest or weed control at 1000 g/ha [5, 9]: 100% | AVEFA % visual injury (Avena fatua (AVEFA); 125 g/ha): 0% | AVEFA % visual injury (Avena fatua (AVEFA); 250 g/ha): 40% | AVEFA % visual injury (Avena fatua (AVEFA); 500 g/ha): 60% | AVEFA % visual injury (Avena fatua (AVEFA); 1000 g/ha): 70% | IPOHE % visual injury ([6]; 125 g/ha): 0% | IPOHE % visual injury ([6]; 250 g/ha): 50% | IPOHE % visual injury ([6]; 500 g/ha): 40% | IPOHE % visual injury ([6]; 1000 g/ha): 60% | pest or weed control at 500 g/ha (Veronica persica (VERPE); Table 3, post-emergence): 100% | pest or weed control at 125 g/ha (Veronica persica (VERPE); [7]): 100% | pest or weed control at 250 g/ha (Veronica persica (VERPE); [8]): 100% | pest or weed control at 500 g/ha (Veronica persica (VERPE); Table 4, post-emergence): 100% | pest or weed control at 1000 g/ha (Veronica persica (VERPE); [9]): 100%
